# Patent US12708632B2 (Jazz Pharmaceuticals Research UK Limited, priority 2020, dated 2026)
# System: seizures associated with Cortical Dysplasia and Cortical Brain Malformation
# Assay: Open label, expanded-access program of botanically derived purified CBD: caregiver-diary seizure frequency
# Assay type: in vivo, human patients
# Design: reduction in atonic seizures over the treatment period / reduction in tonic seizures over the treatment period / reduction in focal seizures without impairment over the treatment period: concentration or dose not given beside the values
# Conditions: for Seizure frequency: Tonic-clonic: baseline 13.0; for Seizure frequency: Myoclonic: baseline 4.0
# Protocol: Subjects were required to be on one or more AEDs at stable doses for a minimum of two weeks prior to baseline and to have stable vagus nerve stimulation (VNS) settings and ketogenic diet ratios for a minimum of four weeks prior to baseline.
# Dose was then increased weekly by 5 mg/kg/day to a goal of 20 to 25 mg/kg/day.
# A maximum dose of 50 mg/kg/day could be utilised for patients who were tolerating the medication but had not achieved seizure control; these patients had further weekly titration by 5 mg/kg/day.
# Modifications were made to concomitant AEDs as per clinical indication.
# Seizure frequency, intensity, and duration were recorded by caregivers in a diary during a baseline period of at least 28 days. Changes in seizure frequency relative to baseline were calculated after at least 2 weeks and at defined timepoints of treatment.
# Patients may be defined as responders if they had more than 50% reduction in seizure frequency compared to baseline. the percent change in seizure frequency was calculated as follows: […]
# The percent change of seizure frequency may be calculated for any time interval where seizure number has been recorded. For the purpose of this example the percent change of seizure frequency for the end of the treatment period was calculated as follows: […]
smiles,measurement,setting,value
"C=C(C)[C@@H]1CCC(C)=C[C@H]1c1c(O)cc(CCCCC)cc1O [CBD, cannabidiol]",Seizure frequency: Atonic,"Patient 1, 2 weeks, CBD 10.0 mg/kg/day, baseline 2.0",0.0 seizures per week
same,Seizure frequency: Tonic-clonic,"Patient 1, 2 weeks, CBD 10.0 mg/kg/day",12.0 seizures per week
same,Seizure frequency: Atonic,"Patient 1, 4 weeks, CBD 20.0 mg/kg/day, baseline 2.0",1.0 seizures per week
same,Seizure frequency: Tonic-clonic,"Patient 1, 4 weeks, CBD 20.0 mg/kg/day",25.0 seizures per week
same,Seizure frequency: Atonic,"Patient 1, 8 weeks, CBD 25.0 mg/kg/day, baseline 2.0",3.0 seizures per week
same,Seizure frequency: Tonic-clonic,"Patient 1, 8 weeks, CBD 25.0 mg/kg/day",17.0 seizures per week
same,Seizure frequency: Atonic,"Patient 1, 12 weeks, CBD 25.0 mg/kg/day, baseline 2.0",1.0 seizures per week
same,Seizure frequency: Tonic-clonic,"Patient 1, 12 weeks, CBD 25.0 mg/kg/day",16.0 seizures per week
same,reduction in atonic seizures over the treatment period,"Patient 1, treated for 12 weeks, vs baseline",50%
same,Seizure frequency: Tonic,"Patient 2, 12 weeks, CBD 5.0 mg/kg/day, baseline 140.0",70.0 seizures per week
same,reduction in tonic seizures over the treatment period,"Patient 2, treated for 12 weeks, vs baseline",50%
same,Seizure frequency: Myoclonic,"Patient 3, 4 weeks, CBD 20.0 mg/kg/day",0.0 seizures per week
same,Seizure frequency: Tonic,"Patient 3, 4 weeks, CBD 20.0 mg/kg/day, baseline 20.0",4.0 seizures per week
same,Seizure frequency: Atonic,"Patient 3, 4 weeks, CBD 20.0 mg/kg/day, baseline 24.0",0.0 seizures per week
same,Seizure frequency: Myoclonic,"Patient 3, 8 weeks, CBD 25.0 mg/kg/day",0.0 seizures per week
same,Seizure frequency: Tonic,"Patient 3, 8 weeks, CBD 25.0 mg/kg/day, baseline 20.0",200.0 seizures per week
same,Seizure frequency: Atonic,"Patient 3, 8 weeks, CBD 25.0 mg/kg/day, baseline 24.0",0.0 seizures per week
same,Seizure frequency: Myoclonic,"Patient 3, 12 weeks, CBD 14.8 mg/kg/day",56.0 seizures per week
same,Seizure frequency: Tonic,"Patient 3, 12 weeks, CBD 14.8 mg/kg/day, baseline 20.0",140.0 seizures per week
same,Seizure frequency: Atonic,"Patient 3, 12 weeks, CBD 14.8 mg/kg/day, baseline 24.0",12.0 seizures per week
same,Seizure frequency: Myoclonic,"Patient 3, 24 weeks, CBD 9.7 mg/kg/day",28.0 seizures per week
same,Seizure frequency: Tonic,"Patient 3, 24 weeks, CBD 9.7 mg/kg/day, baseline 20.0",140.0 seizures per week
same,Seizure frequency: Atonic,"Patient 3, 24 weeks, CBD 9.7 mg/kg/day, baseline 24.0",12.0 seizures per week
same,Seizure frequency: Myoclonic,"Patient 3, 36 weeks, CBD 10.9 mg/kg/day",0.0 seizures per week
same,Seizure frequency: Tonic,"Patient 3, 36 weeks, CBD 10.9 mg/kg/day, baseline 20.0",60.0 seizures per week
same,Seizure frequency: Atonic,"Patient 3, 36 weeks, CBD 10.9 mg/kg/day, baseline 24.0",16.0 seizures per week
same,Seizure frequency: Myoclonic,"Patient 3, 48 weeks, CBD 10.6 mg/kg/day",20.0 seizures per week
same,Seizure frequency: Tonic,"Patient 3, 48 weeks, CBD 10.6 mg/kg/day, baseline 20.0",40.0 seizures per week
same,Seizure frequency: Atonic,"Patient 3, 48 weeks, CBD 10.6 mg/kg/day, baseline 24.0",8.0 seizures per week
same,Seizure frequency: Myoclonic,"Patient 3, 60 weeks, CBD 17.1 mg/kg/day",1.0 seizures per week
same,Seizure frequency: Tonic,"Patient 3, 60 weeks, CBD 17.1 mg/kg/day, baseline 20.0",28.0 seizures per week
same,Seizure frequency: Atonic,"Patient 3, 60 weeks, CBD 17.1 mg/kg/day, baseline 24.0",1.0 seizures per week
same,Seizure frequency: Myoclonic,"Patient 3, 72 weeks, CBD 16.2 mg/kg/day",1.0 seizures per week
same,Seizure frequency: Tonic,"Patient 3, 72 weeks, CBD 16.2 mg/kg/day, baseline 20.0",40.0 seizures per week
same,Seizure frequency: Atonic,"Patient 3, 72 weeks, CBD 16.2 mg/kg/day, baseline 24.0",1.0 seizures per week
same,Seizure frequency: Myoclonic,"Patient 3, 96 weeks, CBD 24.5 mg/kg/day",16.0 seizures per week
same,Seizure frequency: Tonic,"Patient 3, 96 weeks, CBD 24.5 mg/kg/day, baseline 20.0",28.0 seizures per week
same,Seizure frequency: Atonic,"Patient 3, 96 weeks, CBD 24.5 mg/kg/day, baseline 24.0",2.0 seizures per week
same,Seizure frequency: Myoclonic,"Patient 3, 120 weeks, CBD 17.7 mg/kg/day",16.0 seizures per week
same,Seizure frequency: Tonic,"Patient 3, 120 weeks, CBD 17.7 mg/kg/day, baseline 20.0",6.0 seizures per week
same,Seizure frequency: Atonic,"Patient 3, 120 weeks, CBD 17.7 mg/kg/day, baseline 24.0",4.0 seizures per week
same,Seizure frequency: Myoclonic,"Patient 3, 132 weeks, CBD 17.3 mg/kg/day",16.0 seizures per week
same,Seizure frequency: Tonic,"Patient 3, 132 weeks, CBD 17.3 mg/kg/day, baseline 20.0",6.0 seizures per week
same,Seizure frequency: Atonic,"Patient 3, 132 weeks, CBD 17.3 mg/kg/day, baseline 24.0",4.0 seizures per week
same,Seizure frequency: Myoclonic,"Patient 3, 144 weeks, CBD 19.9 mg/kg/day",40.0 seizures per week
same,Seizure frequency: Tonic,"Patient 3, 144 weeks, CBD 19.9 mg/kg/day, baseline 20.0",56.0 seizures per week
same,Seizure frequency: Atonic,"Patient 3, 144 weeks, CBD 19.9 mg/kg/day, baseline 24.0",2.0 seizures per week
same,reduction in atonic seizures over the treatment period,"Patient 3, treated for 144 weeks, vs baseline",91.7%
same,Seizure frequency: Tonic,"Patient 4, 4 weeks, CBD 20.0 mg/kg/day, baseline 196.0",60.0 seizures per week
same,Seizure frequency: Tonic,"Patient 4, 8 weeks, CBD 25.0 mg/kg/day, baseline 196.0",40.0 seizures per week
same,Seizure frequency: Tonic,"Patient 4, 12 weeks, CBD 30.0 mg/kg/day, baseline 196.0",80.0 seizures per week
same,Seizure frequency: Tonic,"Patient 4, 24 weeks, CBD 50.0 mg/kg/day, baseline 196.0",24.0 seizures per week
same,Seizure frequency: Tonic,"Patient 4, 36 weeks, CBD 50.0 mg/kg/day, baseline 196.0",32.0 seizures per week
same,Seizure frequency: Tonic,"Patient 4, 48 weeks, CBD 50.0 mg/kg/day, baseline 196.0",54.0 seizures per week
same,Seizure frequency: Tonic,"Patient 4, 60 weeks, CBD 50.0 mg/kg/day, baseline 196.0",24.0 seizures per week
same,Seizure frequency: Tonic,"Patient 4, 72 weeks, CBD 49.0 mg/kg/day, baseline 196.0",24.0 seizures per week
same,Seizure frequency: Tonic,"Patient 4, 84 weeks, CBD 46.0 mg/kg/day, baseline 196.0",36.0 seizures per week
